Reference: PubChem BioAssay (NCI)
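GI50 is the concentration that inhibits growth by half. The concentration for full growth arrest is given as TGI.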

Key:
Experiment in all cases: inhibition of tumour cell growth, NCI panel, 384-well format
[1] = test system: NCI-H23 lung
[2] = test system: U251 glioblastoma
[3] = test system: HL-60(TB) leukemia
[4] = test system: HCC-2998 colon
[5] = test system: SNB-75 CNS
[6] = test system: MALME-3M melanoma
[7] = test system: HCT-15 colon
[8] = test system: DU-145 prostate
[9] = test system: OVCAR-4 ovarian
[10] = test system: MDA-MB-468 breast
[11] = test system: RPMI-8226 leukemia
[12] = test system: A498 renal
[13] = test system: HOP-92 NSCLC

In the case of `COCc1c(-c2cc3cc(C)cc(OC)c3s2)c2c(N)ncnn2c1CN1CCNC(=O)C1`, the GI50 [1] is reported as 4.13 µM, the TGI [1] is reported as 28.9 µM and the GI50 [2] is reported as 12.1 µM. The TGI [2] was > 100 µM, the GI50 [3] was 7.53 µM and the TGI [3] was 21.8 µM. For the same molecule, the GI50 [4] was 19.1 µM, the TGI [4] was > 93.1 µM and the GI50 [5] was 1.63 µM. It also gave a TGI [5] of 20.5 µM, a GI50 [6] of 4.55 µM and a TGI [6] of 32.6 µM. The GI50 [7] was 5.39 µM, the TGI [7] was > 100 µM and the GI50 [8] was 6.79 µM. For the same molecule, the TGI [8] was > 100 µM, the GI50 [9] was 13.9 µM and the TGI [9] was > 100 µM. It also gave a GI50 [10] of 2.01 µM, a TGI [10] of 7.39 µM and a GI50 [11] of 1.87 µM. The TGI [11] was 7.59 µM, the GI50 [12] was 3.32 µM and the TGI [12] was 40.5 µM. For the same molecule, the GI50 [13] was 2 µM and the TGI [13] was 18.9 µM.
